Data on 14 compounds can be found in US12246022B2, “Compositions and methods for treating, preventing or reversing age associated inflammation and disorders” (BROWN UNIVERSITY, priority 2019, dated 2025).

Where two headings read alike, the source gives them in different places.

In data set [1] the test system is mouse LINE-1. As to the kind of experiment: Mouse LINE-1 retrotransposition assay (dual luciferase pYX016 reporter, HeLa cells). The format is cell-based. The protocol:
Elvucitabine was obtained by custom synthesis. […] HeLa cervical cancer cells were cultivated at 37° C. in a humidified 5% CO2 incubator in Dulbecco's Modified Eagle's Medium (DMEM)-high glucose, with 4500 mg/L glucose, L-glutamine, sodium pyruvate and sodium bicarbonate (Sigma), supplemented with 10% of heat inactivated fetal bovine serum (Thermo Fisher). Assays were performed as described in Xie et al., 2011^151 with several modifications. The reporter assay was performed in 96 well white Optical bottom plates. 6000 HeLa cells were seeded in each well 24 hours prior transfection and compound treatment. All compounds were resuspended in DMSO. Stock solution concentrations varied from 50 mM to 1.25 mM depending of the solubility of the compound. Serial dilutions (1:3) were prepared in DMSO. Ten different concentrations of each compound were tested in triplicate. Medium containing different concentrations of the compounds were prepared by adding 2 μL of the compound dilution to 1 mL of the culture medium. The final concentration of DMSO in the medium was 0.2%. FuGENE® HD transfection reagent (Promega) was used to transfect the plasmid pYX016 into the cells. The transfection mix was prepared in OpiMEM (Thermo Fisher) using a reagent to DNA ratio of 3.5:1 according to manufacturer's instructions. Culture medium was removed from the cells and discarded. The transfection mix (5 μL) was mixed with the compound containing medium (100 μL/well) and this was added onto the cells of each well. Cells were incubated for 48H at 37° C./5% CO2. Luciferase reporter activity was quantified with the Dual-Luciferase® Reporter Assay System (Promega) according to manufacturer's instructions for multiwell plates with the following modification: Cells were lysed directly on the multiwell plate with 30 μL of the passive lysis buffer (PLB) for 20 min at room temperature, with gentle shaking to ensure complete cell lysis (instead of 20 μL of PLB for 15 min). Firefly and Renilla luciferase signals were measured using a SpectraMax i3x Multi-Mode Microplate Reader. […] Relative L1 activity was calculated as Firefly/Renilla *10,000. […] The experiment was performed twice, independently.

The subject of data set [2] is human LINE-1. The data set can be described thus: Human LINE-1 retrotransposition assay, related experiments with islatravir (pYX017, HeLa cells, Tables 12 and 13). The format is cell-based. The protocol: In related experiments, islatravir and other compounds were tested for inhibition of retrotransposition activity of human LINE-1 in HeLa cells according to the following procedure.
HeLa cervical cancer cells were cultivated at 37° C. in a humidified 5% CO2 incubator in Dulbecco's Modified Eagle's Medium (DMEM)—high glucose, with 4500 mg/L glucose, L-glutamine, sodium pyruvate and sodium bicarbonate (Sigma), supplemented with 10% of heat inactivated fetal bovine serum (Thermo Fisher).
Assays were performed using reporter plasmid pYX017 as described (Xie, et al., 2011) with several modifications. The reporter assay was performed in 96-well white optical bottom plates. HeLa cells were seeded in wells 24 h prior to transfection and compound treatment so that cells were approximately 30% confluent on the day of transfection. Different cell plating densities were tested and a density of 2×10^3 cells was determined to be optimal.
Compounds were resuspended in DMSO. Serial dilutions (1:3) were prepared in DMSO. Medium containing different concentrations of the compounds were prepared by adding 2 μl of the compound dilution to 1 ml of the culture medium. The final concentration of DMSO in the medium was 0.2%.
FuGENE® HD transfection reagent (Promega, E2311, Lot 382574 and Lot 397842) was used to transfect the plasmids into the cells. The transfection reagent: DNA mixture was prepared in OpiMEM (Thermo Fisher) according to manufacturer's instructions. Different ratios of transfection reagent to DNA were tested and a ratio of 3:1 was determined to be optimal. Culture medium was removed from the cells and discarded. The transfection reagent: DNA mixture (5 μl) was mixed with the compound containing medium (100 μl/well) and this was added onto the cells of each well. Cells were incubated at 37° C./5% CO2 for different incubation time. A 72 h incubation time was determined to be optimal.
Luciferase reporter activity was quantified with the Dual-Luciferase® Reporter Assay System (Promega) according to manufacturer's instructions for multiwell plates except that cells were lysed directly on the multiwell plate with 30 μl of the passive lysis buffer (PLB) for 20 min at room temperature, with gentle shaking to ensure complete cell lysis.
Firefly and Renilla luciferase signals were measured using a SpectraMax i3x Multi-Mode Microplate Reader. Integration times of 100 ms and 10 ms were used to measure the Firefly and Renilla signals respectively. Relative L1 activity is calculated as Firefly/Renilla *1000 or Firefly/Renilla *10,000. Dose response inhibition data were fit to a four parameter logistic equation using non-linear regression (using Graphpad Prism 8), to determine IC50 values for each inhibitor.

Data set [3] deals with HIV WT. To be noted: read-out: IC50 for HIV (intracellular EFdA-TP); cited from earlier work.
The conditions of data set [4]: in vivo; cited from earlier work.
The subject of data set [5] is human LINE-1. The data set can be described thus: Islatravir Inhibitory Quotient (IQ) estimate for human LINE-1 in PBMC and brain. The note with it: PBMC, intracellular EFdA-TP, used for IQ.
The nature of data set [6]: Comparative studies: intracellular drug concentration relative to LINE-1 IC50 and huCSF/Plasma ratio. The note with it: Table 13 Comparative Studies.
For data set [7] the following is noted: Table 13 Comparative Studies; cited from earlier work.
The subject of data set [8] is human LINE-1. As to the kind of experiment: Human LINE-1 retrotransposition assay (dual luciferase pYX017 reporter, HeLa cells, Table 11). Format: cell-based. How it is done: Assays were performed as described in Xie et al., 2011^151 with several modifications. The reporter assay was performed in 96 well white Optical bottom plates. 6000 HeLa cells were seeded in each well 24 hours prior transfection and compound treatment. All compounds were resuspended in DMSO. Stock solution concentrations varied from 50 mM to 1.25 mM depending of the solubility of the compound. Serial dilutions (1:3) were prepared in DMSO. Ten different concentrations of each compound were tested in triplicate. Medium containing different concentrations of the compounds were prepared by adding 2 μL of the compound dilution to 1 mL of the culture medium. The final concentration of DMSO in the medium was 0.2%. FuGENE® HD transfection reagent (Promega) was used to transfect the plasmid pYX016 into the cells. The transfection mix was prepared in OpiMEM (Thermo Fisher) using a reagent to DNA ratio of 3.5:1 according to manufacturer's instructions. Culture medium was removed from the cells and discarded. The transfection mix (5 μL) was mixed with the compound containing medium (100 μL/well) and this was added onto the cells of each well. Cells were incubated for 48H at 37° C./5% CO2. Luciferase reporter activity was quantified with the Dual-Luciferase® Reporter Assay System (Promega) according to manufacturer's instructions for multiwell plates with the following modification: Cells were lysed directly on the multiwell plate with 30 μL of the passive lysis buffer (PLB) for 20 min at room temperature, with gentle shaking to ensure complete cell lysis (instead of 20 μL of PLB for 15 min). Firefly and Renilla luciferase signals were measured using a SpectraMax i3x Multi-Mode Microplate Reader. […] Relative L1 activity was calculated as Firefly/Renilla *10,000. […] The experiment was performed twice, independently. […] Because the human construct yields a lower signal, compounds were incubated with cells for 72 hours instead of 48 hours, and cells were seeded at a density of 2000/well instead of 6000/well. In addition, the transfection reagent to DNA ratio was 2:1 instead of 3.5:1.

The mark [9] stands for this setting: pYX016, 48 H post-transfection, read-out: Mouse L1 activity inhibition IC50, Exp. 1.
Where [10] appears, read: pYX016, 48 H post-transfection, read-out: Mouse L1 activity inhibition IC50, Exp. 2.
The mark [11] stands for this setting: pYX016, 48 H, n = 2, read-out: Mouse L1 activity inhibition IC50, Average.
[12] abbreviates: Homo sapiens, HeLa cells, pYX017, 72 h, n = 3, read-out: Human LINE-1 IC50, Average.
The mark [13] stands for this setting: Homo sapiens, HeLa cells, pYX017, 72 h, read-out: Human LINE-1 IC50, Exp. 3.
Where [14] appears, read: Homo sapiens, HeLa cells, pYX017, 72 h, read-out: Human LINE-1 IC50, Exp.1.
Setting [15] is: Homo sapiens, HeLa cells, pYX017, 72 h, read-out: Human LINE-1 IC50, Exp.2.
The mark [16] stands for this setting: Homo sapiens, HeLa, Table 13 Comparative Studies, read-out: Human Line-1 IC50.

In the case of `Nc1ccn([C@H]2CO[C@@H](CO)S2)c(=O)n1` [Apricitabine], the 50% inhibitory concentration (IC50) in data set [1] (setting [9]) stood at 4440 nM; in data set [1] (setting [10]) it was 3820 nM; in data set [1] (setting [11]) it was 4130 nM.
For the compound `Cc1cn([C@H]2C[C@H](N=[N+]=[N-])[C@@H](CO)O2)c(=O)[nH]c1=O` [Zidovudine], the IC50 stood at 810 nM in data set [2] (setting [12]), 1680 nM in data set [2] (setting [13]), 410 nM in data set [2] (setting [14]) and 340 nM in data set [2] (setting [15]).
On to `Cc1ccnc2c1NC(=O)c1cccnc1N2C1CC1` [Nevirapine], for which the IC50 in data set [2] (setting [12]), in data set [2] (setting [14]) and in data set [2] (setting [15]) was above 50000 nM each time.
`C[C@H](Cn1cnc2c(N)ncnc21)OCP(=O)(O)O` [Tenofovir]: the IC50 in data set [1] (setting [9]) was found to be 3470 nM; in data set [1] (setting [10]), 4020 nM; in data set [1] (setting [11]), 3750 nM; in data set [2] (Table 13 Comparative Studies, read-out: Human Line-1 IC50) it was 2770 nM.
Turning to `CC(C)OC(=O)OCOP(=O)(CO[C@H](C)Cn1cnc2c(N)ncnc21)OCOC(=O)OC(C)C` [Tenofovir Disiproxil, tenofovir disoproxil], the 50% inhibitory concentration (IC50) in data set [1] (setting [9]) was 157 nM; in data set [1] (setting [10]), 151 nM; in data set [1] (setting [11]), 154 nM; in data set [2] (setting [16]), 200 nM.
In the case of `C#C[C@]1(COP(=O)(O)OP(=O)(O)OP(=O)(O)O)O[C@@H](n2cnc3c(N)nc(F)nc32)C[C@@H]1O` [EFdA-TP], in data set [3], the concentration for half-maximal inhibition (IC50) was 49 nM. For the same compound, the “intracellular T-half in human PBMC” value in data set [4] was 78.5 to 128 h. The EC50 in data set [5] is 316 nM.
As to `Cc1cc(/C=C/C#N)cc(C)c1Nc1ccnc(Nc2ccc(C#N)cc2)n1` [Rilpivirine], the IC50 in data set [2] (setting [12]) was above 15100 nM; in data set [2] (setting [13]), 45500 nM; in data set [2] (setting [14]), above 50000 nM; in data set [2] (setting [15]) it was 15100 nM.
Turning to `Nc1nc(NC2CC2)c2ncn([C@H]3C=C[C@@H](CO)C3)c2n1` [Abacavir (ABC), Abacavir], the “Human Line-1 Intracellular drug conc. (% of IC-50 conc.)” value in data set [6] was 106%. In addition, in data set [2] (setting [16]), the IC50 amounted to 17100 nM. The huCSF/Plasma in data set [7] is reported as 0.67.
Regarding `O=C1Nc2ccc(Cl)cc2[C@@](C#CC2CC2)(C(F)(F)F)O1` [Efavirenz], the 50% inhibitory concentration (IC50) in data set [2] (setting [12]) was above 250 nM; in data set [2] (setting [14]), above 50000 nM; in data set [2] (setting [15]), above 250 nM.
For the compound `C[C@@H]1CCO[C@H]2Cn3cc(C(=O)NCc4ccc(F)cc4F)c(=O)c(O)c3C(=O)N12` [Dolutegravir sodium], the IC50 was above 9380 nM in data set [2] (setting [12]), above 20000 nM in data set [2] (setting [13]) and 9380 nM in data set [2] (setting [14]).
As to `Cc1cn([C@H]2C=C[C@@H](CO)O2)c(=O)[nH]c1=O` [Stavudine], the IC50 was 1590 nM in data set [1] (setting [9]), 1860 nM in data set [1] (setting [10]), 1720 nM in data set [1] (setting [11]) and 750 nM in data set [2] (setting [16]). The “Human Line-1 Intracellular drug conc. (% of IC-50 conc.)” value in data set [6] is listed as 63%. The huCSF/Plasma in data set [7] was 0.2.
Consider `C#C[C@@]1(CO)C=C[C@H](n2cc(C)c(=O)[nH]c2=O)O1` [Censavudine], for which the half-maximal inhibitory concentration (IC50) is 118 nM in data set [1] (setting [9]); 105 nM in data set [1] (setting [10]); 112 nM in data set [1] (setting [11]); around 100 nM in data set [1] (read-out: mouse L1 inhibition IC50); 53 nM in data set [8] (pYX017, 72 H post-transfection, read-out: Human L1 activity inhibition IC50, Exp. 1); 92 nM in data set [8] (pYX017, 72 H post-transfection, read-out: Human L1 activity inhibition IC50, Exp. 2). In addition, the IC50 in data set [8] (pYX017, 72 H, n = 2, read-out: Human L1 activity inhibition IC50, Average) is 72 nM; in data set [8] (read-out: human L1 inhibition IC50) it was around 100 nM; in data set [2] (setting [12]), 100 nM; in data set [2] (setting [13]) it was 50 nM; in data set [2] (setting [14]), 130 nM; in data set [2] (setting [15]) it was 120 nM.
`O=C(NCc1c(F)cc(F)cc1F)c1cn2c(c(O)c1=O)C(=O)N1[C@H]3CC[C@H](C3)O[C@@H]1C2` [Bictegravir]: the IC50 in data set [2] (setting [12]) was above 12400 nM; in data set [2] (setting [14]), 12400 nM; in data set [2] (setting [15]) it was above 50000 nM.
For `Cc1nnc(C(=O)NC(C)(C)c2nc(C(=O)NCc3ccc(F)cc3)c(O)c(=O)n2C)o1` [Raltegravir potassium], the IC50 is above 9860 nM in data set [2] (setting [12]), 49300 nM in data set [2] (setting [13]), 9860 nM in data set [2] (setting [14]) and above 50000 nM in data set [2] (setting [15]).

For orientation: IC50 means the point on the concentration scale where inhibition reaches its midpoint. A word on the EC50: it is the midpoint of the concentration-response curve.
